Laboratory results published in patent publication US20180111913A1, “SUBSTITUTED BENZOFURAN DERIVATIVES AS NOVEL ANTIMYCOBACTERIAL AGENTS” (priority 2015, published 2018).
Values after ≈ are worked out from the molar mass of the structure shown. Read-outs that look alike come from different tables or passages of the source.

Assays:
[1] = target: Mtb Pks13-TE domain (wild-type) (Mycobacterium tuberculosis, UniProt I6X8D2); test: biochemical; assay type: biochemical; settings: for loss / decrease in inhibitory activity compared to compound I: relative to compound I
[2] = test system: Mtb strain mc^27000; test: microbe, parasite or virus in culture; assay type: cell-based, Mycobacterium tuberculosis; settings: for MIC: read-out: MIC
[3] = Pks13-TE, 20 μM 4-MUH, read-out: IC50
[4] = Mycobacterium tuberculosis, Mtb mc^27000, liquid medium, 96-well plates
[5] = Mtb Pks13-TE domain, mean ± s.d. of triplicates, read-out: IC50
[6] = Mtb mc^27000, liquid medium, 96-well plates
[7] = […], mean ± s.d. of triplicates, NI: no inhibition

Mtb Pks13-TE domain (wild-type), sequence (I6X8D2 1451-1733): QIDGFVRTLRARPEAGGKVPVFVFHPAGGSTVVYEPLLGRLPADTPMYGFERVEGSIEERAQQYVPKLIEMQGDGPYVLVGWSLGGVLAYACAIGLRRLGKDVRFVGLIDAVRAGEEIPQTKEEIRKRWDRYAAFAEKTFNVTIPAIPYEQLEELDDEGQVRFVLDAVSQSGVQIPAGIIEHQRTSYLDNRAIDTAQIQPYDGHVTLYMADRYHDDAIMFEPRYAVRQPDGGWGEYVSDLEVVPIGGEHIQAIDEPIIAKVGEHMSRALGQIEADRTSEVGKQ

Compound	IC50 [1, 3]	MIC [2, 4]	further results
CCNC(=O)c1c(-c2ccccc2)oc2ccc(O)c(CN3CCCCC3)c12 [compound 18]	0.36 µM	14 µM (≈ 5.3 µg/mL)	–
CNC(=O)c1c(-c2ccc(O)cc2)oc2ccc(O)c(CNC3CCCC3)c12 [compound 128]	1 µM	1 µM (≈ 0.38 µg/mL)	–
CNC(=O)c1c(-c2ccccc2)oc2ccc(O)c(CCCN3CCCC3)c12 [compound 105]	5 µM	5 µM (≈ 1.89 µg/mL)	–
CNC(=O)c1c(-c2cccnc2)oc2ccc(OC)c(CN3CCCCC3)c12 [compound 112]	35.8 µM	> 40 µM	–
CCOC(=O)c1c(-c2ccccc2)oc2ccc(OC)c(CN3CCCCC3)c12 [compound 23]	–	35.8 µM (≈ 14.1 µg/mL)	IC50 [1, 5]: 35.8 ± 2.2 µM; IC50 ([1]; Pks13-TE, read-out: IC50 (unit inferred)): ~36 µM; loss / decrease in inhibitory activity compared to compound I [1]: > 100 fold
O=C(c1c(-c2ccccc2)oc2ccc(O)c(CN3CCCCC3)c12)N1CCCCC1 [compound 43]	0.32 µM	–	MIC [2, 6]: >10 µM
CCOC(=O)c1c(-c2ccc(F)cc2)oc2cc(O)cc(CCNC(C)CO)c12 (stereo not drawn) [compound 77]	6 µM	3.3 µM (≈ 1.32 µg/mL)	–
CC[C@H](CO)NCCc1c(O)ccc2oc(-c3ccccc3)c(C(=O)NC)c12 [compound 234]	5.3 µM	> 20 µM	–
CCOC(=O)c1c(-c2ccc(O)c(F)c2)oc2ccc(O)c(CN3CCCCC3)c12 [compound 59]	0.29 µM	0.3 µM (≈ 0.124 µg/mL)	–
CC(C)NCCc1c(O)ccc2oc(-c3ccc(O)cc3)c(C(=O)N(C)C)c12 [compound 209]	1.8 µM	–	MIC [2, 6]: 0.45 µM (≈ 0.172 µg/mL)
CC(C)NC(=O)c1c(-c2ccc(O)cc2)oc2ccc(O)c(CCCN3CCC3)c12 [compound 214]	–	–	MIC [2, 6]: <0.08 µM
CNC(=O)c1c(-c2cccc(O)c2)oc2ccc(O)c(CN3CCCCC3)c12 [compound 57]	0.27 µM	0.44 µM (≈ 0.167 µg/mL)	–
CCOC(=O)c1c(-c2ccc(C(N)=O)cc2)oc2ccc(O)c(CN3CCCCC3)c12 [compound 60]	0.3 µM	3.5 µM (≈ 1.48 µg/mL)	–
CNC(=O)c1c(-c2ccccc2)oc2ccc(O)c(CCN3CCCC3)c12 [compound 101]	–	3.3 µM (≈ 1.2 µg/mL)	–
CNC(=O)c1c(-c2ccc(O)cc2)oc2ccc(O)c(CN3CCCC(CO)C3)c12 (stereo not drawn) [compound 127]	1.1 µM	5 µM (≈ 2.05 µg/mL)	–
CCOC(=O)c1c(-c2ccccc2)oc2ccc(O)c(CCN3CCC(C)CC3)c12 [compound 149]	–	2.3 µM (≈ 0.937 µg/mL)	–
O=C(c1c(-c2ccccc2)oc2ccc(O)c(CN3CCCCC3)c12)N1CCOCC1 [compound 46]	0.34 µM	> 20 µM	–
O=S(=O)(Nc1ccc2oc(-c3ccccc3)cc2c1CN1CCC(N2CCCCC2)CC1)C(F)(F)F [compound 100]	> 40 µM	–	inhibition at 20 µM ([2]; Mycobacterium tuberculosis, at 20 μM, read-out: percentage inhibition observed (incomplete inhibition)): 6%
CCOC(=O)c1c(-c2ccccc2)oc2cc([N+](=O)[O-])c(O)c(CN3CCCCC3)c12 [compound 26]	1.3 µM	5.4 µM (≈ 2.29 µg/mL)	–
CNC(=O)c1c(-c2ccnc(O)c2)oc2cc(O)cc(CN3CCCCC3)c12 [compound 85]	–	> 10 µM	–
CCOC(=O)c1c(-c2cccc(O)c2)oc2ccc(O)c(CN3CCCCC3)c12 [compound 50]	0.23 µM	–	MIC [2, 6]: 0.23 µM (≈ 0.091 µg/mL)
CNC(=O)c1c(-c2ccccc2)oc2cc(O)cc(CS(=O)(=O)NC)c12 [compound 83]	–	> 20 µM	–

Compound	IC50 [1, 3]	MIC [2, 4]	further results
CNC(=O)c1c(-c2ccc(O)cc2)oc2ccc(O)c(CN3CCC(CO)C3)c12 (stereo not drawn) [compound 122]	0.51 µM	1 µM (≈ 0.396 µg/mL)	–
CCOC(=O)CCCC1CCN(CCCc2c(O)ccc3oc(-c4ccccc4)c(C(=O)OCC)c23)C1 (stereo not drawn) [compound 161]	0.8 µM	–	MIC [2, 6]: 1.0 µM (≈ 0.508 µg/mL)
CNC(=O)c1c(-c2ccccc2)oc2ccc(O)c(CCN3CC[C@H](Br)C3)c12 [compound 231]	5 µM	8 µM (≈ 3.55 µg/mL)	–
CNC(=O)c1c(-c2ccncc2)oc2cc(O)cc(CN3CCCCC3)c12 [compound 84]	–	6.1 µM (≈ 2.23 µg/mL)	–
CNC(=O)c1c(-c2ccccc2)oc2cccc(CN3CCCCC3)c12 [compound 33]	45 µM	> 50 µM	–
CCOC(=O)c1c(-c2ccccc2)oc2cc(CN3CCCCC3)cc(OC)c12 [compound 35]	–	40 µM (≈ 15.7 µg/mL)	–
NC1CCN(C(=O)c2c(-c3ccccc3)oc3ccc(O)c(CN4CCCCC4)c23)CC1 [compound 54]	5.3 µM	20 µM (≈ 8.67 µg/mL)	–
CCOC(=O)c1c(-c2ccc(O)cc2)oc2ccc(O)c(CN3CCCC(CO)C3)c12 (stereo not drawn) [compound 134]	0.4 µM	2.5 µM (≈ 1.06 µg/mL)	–
CCOC(=O)c1c(-c2ccccc2)oc2ccc(O)c(CCCO)c12 [compound 107]	–	> 20 µM	–
CCOC(=O)c1c(-c2ccccc2)oc2ccc(O)c(CCCN3CCC(CCCO)C3)c12 (stereo not drawn) [compound 162]	2.7 µM	2.5 µM (≈ 1.13 µg/mL)	–
CCOC(=O)c1c(-c2ccccc2)oc2ccc(O)c(CCCN3CC(F)C3)c12 [compound 199]	2.5 µM	1.2 µM (≈ 0.477 µg/mL)	–
CCOC(=O)c1c(-c2ccccc2)oc2cccc(CN3CCCCC3)c12 [compound 24]	2 µM	–	IC50 [1, 5]: 2 ± 0.1 µM; loss / decrease in inhibitory activity compared to compound I [1]: ~7 fold; MIC [2, 6]: 16 µM (≈ 5.82 µg/mL); MIC [2, 7]: 16 µM (≈ 5.82 µg/mL)
CNC(=O)c1c(-c2ccc(O)cc2)oc2ccc(O)c(CN3CCC(CO)CC3)c12 [compound 121]	0.6 µM	40 µM (≈ 16.4 µg/mL)	–
CNC(=O)c1c(-c2ccccc2)oc2cc(O)cc(CN3CCOCC3)c12 [compound 94]	–	> 20 µM	–
CNC(=O)c1c(-c2ccc(O)cc2)oc2ccc(O)c(CN3CCC(O)CC3)c12 [compound 120]	0.5 µM	4.2 µM (≈ 1.67 µg/mL)	–
CCOC(=O)c1c(-c2ccccc2)oc2ccc(O)c(Cc3ccccc3)c12 [compound 10]	11.9 µM	40 µM (≈ 14.9 µg/mL)	–
CCOC(=O)c1c(-c2ccccc2)oc2ccc(O)c(CCN3CCCC3C(=O)O)c12 (stereo not drawn) [compound 244]	> 40 µM	20 to 40 µM (≈ 8.47 to 16.9 µg/mL)	–
CNC(=O)c1c(-c2ccccc2)oc2ccc(O)c(CCCN3CCC3)c12 [compound 200]	4.4 µM	0.6 µM (≈ 0.219 µg/mL)	–
CCOC(=O)c1c(-c2ccccc2)oc2ccc(O)c(CCN3CCC(C#N)CC3)c12 [compound 228]	3.6 µM	5 µM (≈ 2.09 µg/mL)	–
CCOC(=O)c1c(-c2ccccc2)oc2ccc(O)c(CC3CCCCC3)c12 [compound 16]	19.6 µM	–	IC50 [1, 5]: 19.6 ± 1.4 µM; loss of inhibitory activity / higher IC50 against Pks13-TE compared to the test compound ([1]; relative to test compound): > 70 fold; MIC [2, 6]: 5.2 µM (≈ 1.97 µg/mL); MIC [2, 7]: 5.2 µM (≈ 1.97 µg/mL)
CC[C@@H](CO)NCCc1c(O)ccc2oc(-c3ccccc3)c(C(=O)NC)c12 [compound 235]	2.3 µM	> 40 µM	–
CNC(=O)c1c(-c2ccc(NC(C)=O)cc2)oc2ccc(O)c(CN3CCCCC3)c12 [compound 66]	–	> 20 µM	–

Compound	IC50 [1, 3]	MIC [2, 4]	further results
O=C(O)c1c(-c2ccccc2)oc2ccc(O)c(CN3CCCCC3)c12 [compound 14]	–	–	IC50 [1, 5]: 6.6 ± 0.7 µM; loss / decrease in inhibitory activity compared to compound I [1]: ~20 fold; whole-cell activity (Mtb growth inhibition), in words ([2]; Mtb mc^27000): completely abolished
CCOC(=O)c1c(-c2ccccc2)oc2cc(NC(C)=O)c(O)c(CN3CCCCC3)c12 [compound 28]	3.1 µM	–	MIC [2, 6]: 20 µM (≈ 8.73 µg/mL)
CCOC(=O)c1c(-c2ccccc2)oc2ccc(O)c(CC(=O)N3CCCC3)c12 [compound 130]	–	–	MIC [2, 6]: 4.1 µM (≈ 1.61 µg/mL)
CCOC(=O)c1c(-c2ccccc2)oc2cc(OC)cc(CN3CCCCC3)c12 [compound 37]	29 µM	–	MIC [2, 6]: 7.3 µM (≈ 2.87 µg/mL)
CNC(=O)c1c(-c2ccc(F)cc2)oc2cc(O)cc(CCN[C@H](CO)Cc3cnc[nH]3)c12 [compound 261]	5 µM	5 µM (≈ 2.26 µg/mL)	–
CCOC(=O)c1c(-c2ccccc2)oc2ccc(O)c(CCN3CCOCC3)c12 [compound 229]	5.8 µM	3.2 µM (≈ 1.27 µg/mL)	–
CCOC(=O)c1c(-c2ccccc2)oc2ccc(O)c(CN3CCCC(CO)C3)c12 (stereo not drawn) [compound 132]	0.42 µM	–	MIC [2, 6]: 10 µM (≈ 4.09 µg/mL)
CCOC(=O)c1c(-c2ccc(F)cc2)oc2cc(O)cc(CN3CCCCC3)c12 [compound 49]	0.4 µM	–	MIC [2, 6]: >10 µM
CNC(=O)c1c(-c2ccnc(OC)c2)oc2cc(OC)cc(CN3CCCCC3)c12 [compound 86]	> 20 µM	> 20 µM	–
CCOC(=O)c1c(-c2ccc(O)cc2)oc2ccc(O)c(CCCN3CCC3)c12 [compound 201]	2.1 µM	< 0.08 µM	–
CNC(=O)c1c(-c2ccc(O)cc2)oc2ccc(O)c(CCCN3CCC3)c12 [compound 202]	1.6 µM	15 µM (≈ 5.71 µg/mL)	–
CCOC(=O)c1c(-c2ccccc2)oc2ccc(O)c(C)c12 [compound 12]	> 20 µM	20 µM (≈ 5.93 µg/mL)	–
CCOC(=O)c1c(-c2ccccc2)oc2ccc(O)c(CCCN3CCC3)c12 [compound 165]	0.8 µM	0.08 µM (≈ 0.0304 µg/mL)	–
CNC(=O)c1c(-c2ccccc2)oc2ccc(OC)c(C(O)c3ccccc3)c12 (stereo not drawn) [compound 20]	50 µM	50 µM (≈ 19.4 µg/mL)	–
CCOC(=O)c1c(-c2ccccc2)oc2cc(NC(C)=O)cc(CN3CCCCC3)c12 [compound 30]	–	20 to 27 µM (≈ 8.41 to 11.4 µg/mL)	–
CCOC(=O)c1c(-c2ccccc2)oc2ccc(O)c(CCO)c12 [compound 106]	–	> 20 µM	–
CNC(=O)c1c(-c2ccccc2)oc2cc(O)cc(CNC3CCOCC3)c12 [compound 95]	–	8 µM (≈ 3.04 µg/mL)	–
CCOC(=O)c1c(-c2ccccc2)oc2ccc(O)c(CCCNCC(F)F)c12 [compound 218]	–	–	MIC [2, 6]: 2.8 µM (≈ 1.13 µg/mL)
CNC(=O)c1c(-c2ccccc2)oc2ccc(O)c(CCCNCc3nonc3C)c12 [compound 195]	–	–	MIC [2, 6]: >40 µM
CCOC(=O)c1c(-c2ccccc2)oc2ccc(O)c(CN3CCC(C)CC3)c12 [compound 1]	–	2.3 ± 0.2 µM (≈ 0.905 µg/mL)	MIC ([2]; Mycobacterium tuberculosis, […], mean ± s.d. of triplicates, NI: no inhibition): 2.3 ± 0.2 µM (≈ 0.905 µg/mL)
CNC(=O)c1c(-c2ccnc(OC)c2)oc2cc(O)cc(CN3CCCCC3)c12 [compound 87]	–	3.3 µM (≈ 1.31 µg/mL)	–
CNC(=O)c1c(-c2ccccc2)oc2cc(O)cc(CNCCO)c12 [compound 96]	–	9 µM (≈ 3.06 µg/mL)	–
